# Results taken from PMC8187479, “Sugar phosphate activation of the stress sensor eIF2B” (Nature Communications, 2021).
# Where a chain is given by its changes, count along the chain named.
# Assays:
# eIF2Bα = biological target: T1, eIF2Bα (Homo sapiens, UniProt Q14232); assay: MIDAS (mass spectrometry integrated with equilibrium dialysis) metabolite binding screen; conditions: eIF2Bα2; 50 μM per metabolite pool; 40 h dialysis at 4 °C
# T1 construct: made in house; host or cells: E. coli BL21(DE3)
# T1 sequence (Q14232 1-305): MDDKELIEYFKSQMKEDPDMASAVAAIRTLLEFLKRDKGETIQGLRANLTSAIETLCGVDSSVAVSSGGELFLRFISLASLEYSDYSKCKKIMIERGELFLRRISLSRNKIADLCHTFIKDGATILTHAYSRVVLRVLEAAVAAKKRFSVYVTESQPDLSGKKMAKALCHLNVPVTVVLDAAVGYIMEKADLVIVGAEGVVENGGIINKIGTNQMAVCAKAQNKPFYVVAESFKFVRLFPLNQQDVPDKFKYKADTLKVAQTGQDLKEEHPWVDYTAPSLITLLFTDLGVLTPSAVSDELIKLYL
# How it was run: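 Hits called at Storey q < 0.1 on z-scores of PCA-corrected log2 fold change between protein and metabolite chambers, quantified by FIA-MS in triplicate.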
# eIF2Bα^E198K = biological target: T2, eIF2Bα^E198K (Homo sapiens, UniProt Q14232, E198K); assay: Isothermal titration calorimetry, eIF2Bα E198K; format: binding; conditions: ITC
# T2 sequence (Q14232 1-305 E198K): T1 sequence (Q14232 1-305) with E198K
# Method: Interactions between recombinant protein and sugar phosphates were conducted with a MicroCal PEAQ-ITC (Malvern Panalytical Inc.). Experiments were performed in 25 mM HEPES, 150 mM NaCl, pH 7.5 at 20 °C. […] The final titration curves were fitted using MicroCal ITC data analysis software, assuming a single binding site per monomer.
# [1] = biological target: T3, eIF2B decamer in eIF2Bα^E198K HEK293T lysate (Homo sapiens, UniProt P49770+Q14232+Q9UI10, E198K); assay: Sucrose gradient centrifugation, eIF2B complex assembly, eIF2Bα E198K HEK293T lysate; format: biochemical
# T3 construct: endogenous in cells; host or cells: HEK293T, CRISPR knock-in eIF2Bα E198K (homozygous), lysate
# Method: WT or eIF2Bα mutant HEK293T cells were harvested and lysed in 50 mM HEPES, 400 mM KCl, 1 mM DTT, 4 mM Mg(OAc)2, pH 7.5 + 0.5% Triton-X-100 + EDTA-free protease inhibitor cocktail (Roche) on ice for 30 min. Lysates were cleared by centrifugation at 48,000 × g, 4 °C for 30 min. 100 μL of each cleared lysate was loaded onto a 5–20% sucrose gradient prepared in a 13 × 51 mm ultracentrifuge tube using a Gradient Station (Biocomp) and centrifuged in a SW55 Ti rotor at 152,000 × g, 4 °C for 12 h. After centrifugation, 24 × 200 μL fractions were manually collected from the top to bottom of each gradient. Each fraction was subjected to methanol/chloroform precipitation and SDS-PAGE followed by Western Blot with the indicated antibodies. Blots were imaged on a ChemiDoc MP (Bio-Rad), and band intensities were quantified using the instrument’s Image Lab software. Each value was then divided by total intensity obtained across all fractions to determine percent enrichment of each subunit in each fraction.
# [2] = biological target: T4, phospho-eIF2α binding to eIF2B (Homo sapiens, UniProt P49770+Q14232+Q9UI10); assay: Phospho-eIF2α co-immunoprecipitation with FLAG-tagged eIF2B; conditions: lysate of thapsigargin-treated HEK293T eIF2Bβ-FLAG cells; ligand 2 h at 4 °C
# T4 construct: endogenous in cells; host or cells: HEK293T with FLAG knock-in at the endogenous eIF2Bβ locus, treated with thapsigargin; lysate, anti-FLAG IP
# Method: HEK293T cells endogenously expressing eIF2Bβ with a C-terminal FLAG tag were maintained in DMEM High Glucose (Corning CellGro) supplemented with 10% FBS (Gibco) and antibiotic-antimycotic (Gibco). Upon reaching 90% confluency, cells were treated with either DMSO or 100 nM thapsigargin (Sigma) for 4 h. Cells were harvested and lysed in 25 mM HEPES, 150 mM KCl, 1% NP-40, 1 mM EDTA, pH 7.4 + Complete protease inhibitor cocktail (Roche) and PhosStop (Roche) on ice for 20 min. Lysates were cleared by centrifugation at 18,000 × g, 20 min, 4 °C, and transferred to Eppendorf tubes containing anti-FLAG M2 magnetic beads (Sigma). Mixtures were incubated overnight at 4 °C. To test the effect of ligands, these were added to the mixtures and incubated for an additional 2 h at 4 °C. Beads were washed three times with lysis buffer, eluted with 1× LDS buffer (Invitrogen), and subjected to SDS-PAGE followed by Western Blot with the indicated antibodies.
# T3 sequence (Q14232 whole entry E198K): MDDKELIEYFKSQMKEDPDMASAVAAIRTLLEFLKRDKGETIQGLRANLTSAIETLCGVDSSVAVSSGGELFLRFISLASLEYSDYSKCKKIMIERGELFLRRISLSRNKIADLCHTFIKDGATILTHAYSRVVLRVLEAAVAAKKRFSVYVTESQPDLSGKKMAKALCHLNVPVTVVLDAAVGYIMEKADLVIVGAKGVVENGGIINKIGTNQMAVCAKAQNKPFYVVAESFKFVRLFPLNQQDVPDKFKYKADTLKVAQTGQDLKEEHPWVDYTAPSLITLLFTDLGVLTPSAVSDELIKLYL
# T3 sequence (P49770 whole entry): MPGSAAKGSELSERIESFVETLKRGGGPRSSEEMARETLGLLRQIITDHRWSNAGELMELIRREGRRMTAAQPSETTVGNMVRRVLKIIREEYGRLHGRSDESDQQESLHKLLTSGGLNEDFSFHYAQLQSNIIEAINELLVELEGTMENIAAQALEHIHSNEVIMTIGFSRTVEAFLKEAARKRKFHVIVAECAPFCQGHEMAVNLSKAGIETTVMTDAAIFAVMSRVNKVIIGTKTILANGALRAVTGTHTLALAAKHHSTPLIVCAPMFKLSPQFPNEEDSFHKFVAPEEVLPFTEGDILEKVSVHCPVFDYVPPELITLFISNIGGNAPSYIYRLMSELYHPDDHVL
# T3 sequence (Q9UI10 whole entry): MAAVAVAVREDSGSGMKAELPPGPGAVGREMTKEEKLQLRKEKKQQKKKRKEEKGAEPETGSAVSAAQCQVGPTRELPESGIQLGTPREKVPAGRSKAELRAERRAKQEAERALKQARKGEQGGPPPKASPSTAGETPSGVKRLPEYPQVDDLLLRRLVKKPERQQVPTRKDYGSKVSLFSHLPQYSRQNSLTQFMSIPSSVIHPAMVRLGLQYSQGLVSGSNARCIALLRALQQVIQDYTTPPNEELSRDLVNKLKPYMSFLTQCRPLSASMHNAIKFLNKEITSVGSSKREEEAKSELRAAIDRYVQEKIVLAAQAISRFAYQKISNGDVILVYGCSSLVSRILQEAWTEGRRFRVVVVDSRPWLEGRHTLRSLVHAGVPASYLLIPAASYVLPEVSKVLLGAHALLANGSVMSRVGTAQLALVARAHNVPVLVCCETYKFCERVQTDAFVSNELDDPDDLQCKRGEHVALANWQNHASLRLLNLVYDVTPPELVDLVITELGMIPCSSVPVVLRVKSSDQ
# T3 sequence (Q9NR50 whole entry partner): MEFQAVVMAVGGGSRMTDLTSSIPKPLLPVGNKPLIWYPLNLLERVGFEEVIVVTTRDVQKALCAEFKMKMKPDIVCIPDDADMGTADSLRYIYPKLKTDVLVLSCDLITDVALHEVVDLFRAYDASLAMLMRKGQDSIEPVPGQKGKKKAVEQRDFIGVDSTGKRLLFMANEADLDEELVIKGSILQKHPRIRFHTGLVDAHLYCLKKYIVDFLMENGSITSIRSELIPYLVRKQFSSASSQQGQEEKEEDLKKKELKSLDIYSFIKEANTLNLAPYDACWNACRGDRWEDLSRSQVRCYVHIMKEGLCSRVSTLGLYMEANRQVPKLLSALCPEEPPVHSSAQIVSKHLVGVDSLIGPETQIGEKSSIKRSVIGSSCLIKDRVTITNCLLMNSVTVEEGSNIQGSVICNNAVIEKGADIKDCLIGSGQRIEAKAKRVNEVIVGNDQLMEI
# T3 sequence (Q13144 whole entry partner): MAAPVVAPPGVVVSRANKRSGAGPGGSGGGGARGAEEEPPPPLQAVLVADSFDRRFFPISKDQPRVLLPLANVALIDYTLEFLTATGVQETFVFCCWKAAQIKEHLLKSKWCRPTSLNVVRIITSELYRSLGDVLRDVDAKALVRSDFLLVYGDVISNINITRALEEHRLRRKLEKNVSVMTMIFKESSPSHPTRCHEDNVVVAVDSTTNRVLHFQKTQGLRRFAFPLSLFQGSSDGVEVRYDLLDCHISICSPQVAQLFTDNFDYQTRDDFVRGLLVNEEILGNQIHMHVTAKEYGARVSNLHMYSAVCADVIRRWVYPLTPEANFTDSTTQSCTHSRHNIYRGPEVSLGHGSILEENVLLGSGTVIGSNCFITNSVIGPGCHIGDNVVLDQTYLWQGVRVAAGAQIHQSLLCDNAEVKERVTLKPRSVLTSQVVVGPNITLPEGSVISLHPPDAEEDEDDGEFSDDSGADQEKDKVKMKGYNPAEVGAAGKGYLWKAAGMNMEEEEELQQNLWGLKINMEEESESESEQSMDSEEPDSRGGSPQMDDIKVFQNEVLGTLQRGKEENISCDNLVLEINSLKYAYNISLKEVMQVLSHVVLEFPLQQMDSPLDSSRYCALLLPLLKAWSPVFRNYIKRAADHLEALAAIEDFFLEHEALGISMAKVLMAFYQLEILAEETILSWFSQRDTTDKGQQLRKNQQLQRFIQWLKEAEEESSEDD
# T4 sequence (P49770 whole entry, one chain of several): as the sequence (P49770 whole entry) above
# T4 sequence (Q9UI10 whole entry, one chain of several): as the sequence (Q9UI10 whole entry) above
# T4 sequence (Q9NR50 whole entry partner, one chain of several): as the sequence (Q9NR50 whole entry partner) above
# T4 sequence (Q13144 whole entry partner, one chain of several): as the sequence (Q13144 whole entry partner) above
smiles,measurement,setting,value
"O=C(CO)[C@@H](O)[C@H](O)[C@H](O)COP(=O)(O)O [F6P, fructose-6-phosphate]",MIDAS result (enrichment in the protein chamber / hit status),eIF2Bα,not a MIDAS hit
same,Kd,eIF2Bα^E198K; eIF2Bα E198K,99 ± 12 µM
same,reduction of affinity of eIF2Bα E198K,eIF2Bα^E198K; compared with wild-type eIF2Bα,11 fold
same,eIF2B decamer formation,[1],unresponsive
same,co-immunoprecipitation of phospho-eIF2α with FLAG-tagged eIF2B,[2],did not decrease the interaction
